Reference: ChEMBL document CHEMBL4368856, “Probing the hras-1Y i-motif with small molecules” (Medchemcomm, 2018)
pKd: −log10 of the molar value. Activity calls are given as the source filed them. No cut-off for these calls is given here.

Experiment: Binding affinity to 5'-AlexaFluor 647-labelled HRAS-1 Y i-motif DNA (unknown origin) after 1 hr by fluorescence assay

Activity	SMILES
Active	COc1ccc(CCN(C)C2CCCN(c3ccnc(N)n3)C2)cc1OC (stereo not given)
Active	CC(c1ccc(-c2cc(NCCO)nc(N)n2)cc1)N1CCCC1 (stereo not given)

Experiment: Binding affinity to 5'-biotin-labelled HRAS-1 Y i-motif DNA (unknown origin) by surface plasmon resonance analysis

SMILES	pKd
COc1cc(-c2ccc(C(C)N3CCCC3)cc2)nc(N)n1 (stereo not given)	< 3.52
COc1ccc(CCN(C)C2CCCN(c3ccnc(N(C)C)n3)C2)cc1OC (stereo not given)	< 3.52
Nc1nccc(N2CCCC(CCc3ccccc3)C2)n1 (stereo not given)	< 3.52
NCCn1cc(C(=O)NC2CCCN(Cc3cccc(O)c3)C2)nn1 (stereo not given)	3.62
CC(c1ccc(-c2cc(N3CCCC3)nc(N)n2)cc1)N(C)C (stereo not given)	< 3.52
CC(c1ccc(-c2cc(N3CCOCC3)nc(N)n2)cc1)C(C)N1CCCC1 (stereo not given)	3.83

Compounds with a higher pKd, results first:

pKd	SMILES
6.70	COc1cc(N2CCCC(N(C)CCc3ccc(OC)c(OC)c3)C2)ncn1 (stereo not given)
4.29	COc1cc(-c2ccc(C(C)N3CCCCC3)cc2)nc(N)n1 (stereo not given)
4.11	COc1ccc(CCCNc2nc(N)nc3c2CCNCC3)cc1OC
5.23	COc1ccc(CCN(C)C2CCCN(c3ccnc(N)n3)C2)cc1OC (stereo not given)
4.94	COc1ccc(CCN(C)C2CCCN(c3cc(C)nc(N)n3)C2)cc1OC (stereo not given)
5.13	CC(c1ccc(-c2cc(NCCO)nc(N)n2)cc1)N1CCCC1 (stereo not given)
6.52	COc1ccc(CCN(C)C2CCCN(c3ccnc(C)n3)C2)cc1OC (stereo not given)

Experiment: Binding affinity to 5'-AlexaFluor 647-labelled HRAS-1 Y i-motif DNA (unknown origin) by fluorescence titration method

SMILES	pKd
COc1cc(-c2ccc(C(C)N3CCCC3)cc2)nc(N)n1 (stereo not given)	< 3.68
COc1ccc(CCN(C)C2CCCN(c3ccnc(N(C)C)n3)C2)cc1OC (stereo not given)	4.30
Nc1nccc(N2CCCC(CCc3ccccc3)C2)n1 (stereo not given)	< 3.68
NCCn1cc(C(=O)NC2CCCN(Cc3cccc(O)c3)C2)nn1 (stereo not given)	< 3.68
CC(c1ccc(-c2cc(N3CCCC3)nc(N)n2)cc1)N(C)C (stereo not given)	3.97
CC(c1ccc(-c2cc(N3CCOCC3)nc(N)n2)cc1)C(C)N1CCCC1 (stereo not given)	4.04

Next, values leading:

pKd	SMILES
6.22	COc1cc(N2CCCC(N(C)CCc3ccc(OC)c(OC)c3)C2)ncn1 (stereo not given)
3.59	COc1cc(-c2ccc(C(C)N3CCCCC3)cc2)nc(N)n1 (stereo not given)
4.51	COc1ccc(CCCNc2nc(N)nc3c2CCNCC3)cc1OC
4.45	COc1ccc(CCN(C)C2CCCN(c3ccnc(N)n3)C2)cc1OC (stereo not given)
4.80	COc1ccc(CCN(C)C2CCCN(c3cc(C)nc(N)n3)C2)cc1OC (stereo not given)
5.80	CC(c1ccc(-c2cc(NCCO)nc(N)n2)cc1)N1CCCC1 (stereo not given)
5.52	COc1ccc(CCN(C)C2CCCN(c3ccnc(C)n3)C2)cc1OC (stereo not given)

Experiment: Aggregation property of the compound in D2O/DMSO at 100 uM by 1H-WaterLOGSY NMR analysis
Assay type: physicochemical

Activity	SMILES
Not Active	CC(c1ccc(-c2cc(NCCO)nc(N)n2)cc1)N1CCCC1 (stereo not given)

Experiment: Binding affinity to HRAS-1 Y i-motif DNA (unknown origin) in D2O/DMSO at 100 uM by 1H-WaterLOGSY NMR analysis

Activity	SMILES
Active	CC(c1ccc(-c2cc(NCCO)nc(N)n2)cc1)N1CCCC1 (stereo not given)

Experiment: Binding affinity to HRAS-1 Y i-motif DNA (unknown origin) in pH 6 D2O/DMSO at 100 uM by 1H-WaterLOGSY NMR analysis

Activity	SMILES
Active	COc1ccc(CCN(C)C2CCCN(c3ccnc(N)n3)C2)cc1OC (stereo not given)
Active	CC(c1ccc(-c2cc(NCCO)nc(N)n2)cc1)N1CCCC1 (stereo not given)

Experiment: Binding affinity to HRAS-1 Y i-motif DNA (unknown origin) in pH 8 D2O/DMSO at 100 uM by 1H-WaterLOGSY NMR analysis

Activity	SMILES
inactive	COc1ccc(CCN(C)C2CCCN(c3ccnc(N)n3)C2)cc1OC (stereo not given)
inactive	CC(c1ccc(-c2cc(NCCO)nc(N)n2)cc1)N1CCCC1 (stereo not given)

Experiment: Binding affinity to HRAS-1 Y i-motif DNA (unknown origin) in pH 6 D2O/DMSO assessed as chemical shift perturbation in i-motif imino proton at 15 to 16 ppm up to 150 uM by NMR analysis

Activity	SMILES
inactive	COc1ccc(CCN(C)C2CCCN(c3ccnc(N)n3)C2)cc1OC (stereo not given)
Active	CC(c1ccc(-c2cc(NCCO)nc(N)n2)cc1)N1CCCC1 (stereo not given)

Experiment: Binding affinity to HRAS-1 Y i-motif DNA (unknown origin) in pH 6 D2O/DMSO assessed as chemical shift perturbation in Watson-Crick imino proton at 12.5 to 14 ppm up to 150 uM by NMR analysis

Activity	SMILES
Active	COc1ccc(CCN(C)C2CCCN(c3ccnc(N)n3)C2)cc1OC (stereo not given)
inactive	CC(c1ccc(-c2cc(NCCO)nc(N)n2)cc1)N1CCCC1 (stereo not given)

Experiment: Binding affinity to HRAS-1 Y i-motif DNA (unknown origin) in pH 6 D2O/DMSO assessed as chemical shift perturbation at 7 to 12 ppm up to 150 uM by NMR analysis

Activity	SMILES
Active	COc1ccc(CCN(C)C2CCCN(c3ccnc(N)n3)C2)cc1OC (stereo not given)
inactive	CC(c1ccc(-c2cc(NCCO)nc(N)n2)cc1)N1CCCC1 (stereo not given)

Experiment: Binding affinity to HRAS-1 Y i-motif DNA (unknown origin) in pH 6 tris-acetate buffer assessed as confirmational change at 10 to 50 uM by circular dichroism analysis

Activity	SMILES
inactive	COc1ccc(CCN(C)C2CCCN(c3ccnc(N)n3)C2)cc1OC (stereo not given)
Active	CC(c1ccc(-c2cc(NCCO)nc(N)n2)cc1)N1CCCC1 (stereo not given)

Experiment: Binding affinity to HRAS-1 Y i-motif DNA (unknown origin) assessed as change in melting temperature by thermal denaturation study

Activity	SMILES
inactive	COc1ccc(CCN(C)C2CCCN(c3ccnc(N)n3)C2)cc1OC (stereo not given)
inactive	CC(c1ccc(-c2cc(NCCO)nc(N)n2)cc1)N1CCCC1 (stereo not given)

Experiment: Binding affinity to 5'-ATTO/3'-TAMRA labelled HRAS-1 Y i-motif DNA (unknown origin) up to 252 uM after 10 mins by FRET assay

Activity	SMILES
inactive	CC(c1ccc(-c2cc(NCCO)nc(N)n2)cc1)N1CCCC1 (stereo not given)
